Data on four molecules can be found in patent US9718840B2, “Condensed 5-oxazolidinone derivative” (SUMITOMO DAINIPPON PHARMA CO., LTD., priority 2014, dated 2017).

The subject of data set [1] is Rabbit venous thrombus models. Briefly: In vivo antithrombotic effect evaluation test using rabbit (arteriovenous shunt). The settings on record: prompt i.v. + continuous i.v. The method, then: (§1) Rabbit venous thrombus models were prepared by a modification of the report of Wong et al. (Wong P C. et al., J. Pharmacol. Exp. Ther. 292: 351-357 (2000)). Male rabbits (JW, 2 to 4 kg) were anesthetized by the inhalation of isoflurane (ISOFLU®, manufactured by DS Pharma Animal Health Co., Ltd.) (introduced anesthesia: 4%, continuous anesthesia: 1.5 to 2.5%). A tracheostomy tube was inserted to each rabbit, which was then ventilated using a respirator. For the intravenous administration of a test drug and blood collection, catheters were inserted to the right femoral vein and the right femoral artery, respectively. An arteriovenous shunt filled with saline was inserted to the carotid artery and the jugular vein. The arteriovenous shunt was prepared by connecting Atom extension tubes (4Fr) having lengths of 15 cm and 13 cm to the artery side and the vein side, respectively, of a polyethylene tube (length: 60 cm, outside diameter: 11.1 mm, inside diameter: 7.9 mm). Also, 4-0 silk thread having a length of 5 cm was indwelled in the arteriovenous shunt. Blood was sent for 30 minutes from the carotid artery to the jugular vein via the arteriovenous shunt. The shunt was removed, and the weight of the silk thread covered with thrombus was measured. The weight of the silk thread measured before the experiment was subtracted from the measured weight, and the obtained value was used as a wet thrombus weight. One hour before the open of the arteriovenous shunt, the test drug or a vehicle was promptly intravenously administered (0.67 mL/kg) and then continuously intravenously administered (1 mL/kg/hr). The continuous injection was continued throughout the experiment. Further, an existing anticoagulant dabigatran (antithrombin drug) and rivaroxaban (FXa inhibitor) were tested as control drugs.
In order to measure aPTT of blood samples as an index for the intrinsic coagulation pathway, blood was collected before administration and immediately before cessation of blood flow, and plasma was prepared using 3.2% sodium citrate. After incubation at 37° C. for 6 minutes, an STA reagent Cephascreen (for aPTT assay; manufactured by Roche Diagnostics K.K.) was added in an amount equal thereto, and the mixture was further incubated for 4 minutes. STA calcium chloride (manufactured by Roche Diagnostics K.K.) was added in an amount equal thereto, and the time required for coagulation was measured.
In order to measure prothrombin time (PT) of blood samples as an index for the extrinsic coagulation pathway, blood was collected before administration and immediately before cessation of blood flow, and plasma was prepared using 3.2% sodium citrate. After incubation at 37° C. for 10 minutes, Neoplastin Plus (for PT assay; manufactured by Roche Diagnostics K.K.) was added in a double amount, and the time required for coagulation was measured.

Data set [2] deals with Rabbit nail bleeding models. Put plainly: Bleeding time evaluation test using rabbit nail bleeding model. The format is in vivo. The note with it: for Bleeding time: Experiment 1 (maximum 30 minutes), rabbit; for Bleeding time (fold-increase): Experiment 1, ratio to vehicle group average. As to the method: Rabbit nail bleeding models were prepared by a modification of the report of Wong et al. (Wong P C. et al., J. Thromb. Haemost. 7: 1313-1320 (2009)). Male rabbits (JW, 1.5 to 3.5 kg) were anesthetized by the inhalation of isoflurane (ISOFLU®, manufactured by DS Pharma Animal Health Co., Ltd.) (introduced anesthesia: 4%, continuous anesthesia: 2 to 3%).
(§2) For the intravenous administration of a test drug or a vehicle, an indwelling needle was inserted to the auricular vein, and the test drug or the vehicle was promptly intravenously administered (0.67 mL/kg) and then continuously intravenously administered (1 mL/kg/hr). One hour after the start of administration, three posterior toenails were cut and dipped in saline heated to approximately 37° C., and the bleeding time was measured. The bleeding time was defined as a time from the cutting to the arrest of bleeding, and an average value from the three nails was used. The measurement time was 30 minutes at the maximum for experiment 1 and 60 minutes at the maximum for experiment 2. In each experiment, if bleeding for 30 minutes or 60 minutes or longer was confirmed, the bleeding time was regarded as 30 minutes or 60 minutes.

The test system of data set [3] is Rabbit venous thrombus models. Put plainly: Effect of combined use with antiplatelet drug using rabbit AVST model. The note with it: alone. It counts as in vivo. The method, then: as §1, with “Male rabbits (JW, 2 to 4 kg) were anesthetized by the inhalation of isoflurane (ISOFLU®, manufactured by DS Pharma Animal Health Co., Ltd.) (introduced anesthesia: 4%, continuous anesthesia: 1.5 to 2.5%).” left out, “The arteriovenous shunt was prepared by connecting Atom extension tubes (4Fr) having lengths of 15 cm and 13 cm to the artery side and the vein side, respectively, of a polyethylene tube (length: 60 cm, outside diameter: 11.1 mm, inside diameter: 7.9 mm).” left out, “[…] STA calcium chloride (manufactured by Roche Diagnostics K.K.) was added in” for “Further,”, “amount equal thereto,” for “existing anticoagulant dabigatran (antithrombin drug)”, “the time required for coagulation was measured.” for “rivaroxaban (FXa inhibitor) were tested as control drugs.”

Data set [4] deals with Rabbit nail bleeding models. Put plainly: Effect of combined use with antiplatelet drug using rabbit nail bleeding model. The format is in vivo. The settings on record: alone; for Bleeding time: rabbit, maximum 60 minutes; for Bleeding time (fold-increase): ratio to vehicle group average. The method, then: as §2, with “Rabbit nail bleeding models were prepared by a modification of the report of Wong et al. (Wong P C. et al., J. Thromb. Haemost. 7: 1313-1320 (2009)). Male rabbits (JW, 1.5 to 3.5 kg) were anesthetized by the inhalation of isoflurane (ISOFLU®, manufactured by DS Pharma Animal Health Co., Ltd.) (introduced anesthesia: 4%, continuous anesthesia: 2 to 3%). For” for “For”, “was” for “was 30 minutes at the maximum for experiment 1 and”, “maximum. If” for “maximum for experiment 2. In each experiment, if”, “for” for “for 30 minutes or”, “as” for “as 30 minutes or”

The next data set has as its target Human FXIa (Homo sapiens, UniProt P03951). Briefly: In vitro activated factor XI (FXIa) inhibition test. It counts as biochemical.
Where [5] appears, read: dose 0.03 + 0.045 mg/kg + mg/kg/h.
Setting [6] is: dose 0.1 + 0.15 mg/kg + mg/kg/h.
The mark [7] stands for this setting: dose 0.3 + 0.45 mg/kg + mg/kg/h.
[8] abbreviates: dose 0.03 + 0.045 mg/kg + mg/kg/h i.v.
Setting [9] is: dose 0.1 + 0.15 mg/kg + mg/kg/h i.v.
[10] abbreviates: dose 0.3 + 0.45 mg/kg + mg/kg/h i.v.

Human FXIa, sequence (P03951 388-625 limits assumed): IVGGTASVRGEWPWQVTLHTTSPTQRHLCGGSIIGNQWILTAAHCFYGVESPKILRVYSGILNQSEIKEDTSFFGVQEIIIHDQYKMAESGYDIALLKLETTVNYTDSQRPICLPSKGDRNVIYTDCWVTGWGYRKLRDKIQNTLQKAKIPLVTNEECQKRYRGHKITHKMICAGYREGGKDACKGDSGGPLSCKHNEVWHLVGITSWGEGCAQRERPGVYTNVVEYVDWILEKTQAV
Human FXIa, sequence (P03951 19-387 partner limits assumed): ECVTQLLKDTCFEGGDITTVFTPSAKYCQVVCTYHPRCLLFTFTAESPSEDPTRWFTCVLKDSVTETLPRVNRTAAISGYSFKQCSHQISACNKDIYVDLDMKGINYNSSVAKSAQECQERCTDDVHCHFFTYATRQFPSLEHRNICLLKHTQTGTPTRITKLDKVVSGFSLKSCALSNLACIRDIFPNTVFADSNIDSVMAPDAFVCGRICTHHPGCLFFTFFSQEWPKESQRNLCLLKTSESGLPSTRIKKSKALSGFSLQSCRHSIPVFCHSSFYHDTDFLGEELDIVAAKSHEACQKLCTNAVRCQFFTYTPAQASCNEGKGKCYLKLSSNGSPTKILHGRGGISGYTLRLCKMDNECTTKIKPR

Regarding `O=C(NC[C@H]1CN(c2ccc(N3CCOCC3=O)cc2)C(=O)O1)c1ccc(Cl)s1` [Rivaroxaban], the “PT (ratio)” value in data set [1] (setting [5]) is given as 1.23 ± 0.05 ratio; in data set [1] (setting [6]), 1.73 ± 0.15 ratio; in data set [1] (setting [7]), 2.87 ± 0.33 ratio; in data set [3] (setting [8]), 1.23 ± 0.05 ratio; in data set [3] (setting [9]) it was 1.73 ± 0.15 ratio. Besides, the Thrombus weight came to 92 ± 19 mg in data set [1] (setting [5]); 58 ± 9 mg in data set [1] (setting [6]); 29 ± 10 mg in data set [1] (setting [7]); 92 ± 19 mg in data set [3] (setting [8]); 58 ± 9 mg in data set [3] (setting [9]). Also, the “aPTT (ratio)” value in data set [1] (setting [5]) turned out to be 1.22 ± 0.06 ratio; in data set [1] (setting [6]), 1.50 ± 0.09 ratio; in data set [1] (setting [7]) it was 1.87 ± 0.14 ratio; in data set [3] (setting [8]), 1.22 ± 0.06 ratio; in data set [3] (setting [9]), 1.50 ± 0.09 ratio. Moreover, the “Bleeding time” value amounted to 1031 ± 319 s in data set [2] (setting [8]); 1369 ± 334 s in data set [2] (setting [9]); 1733 ± 110 s in data set [2] (setting [10]); 1614 ± 869 s in data set [4] (setting [8]); 2445 ± 964 s in data set [4] (setting [9]). The “Bleeding time (fold-increase)” value in data set [2] (setting [8]) is reported as 2.3 ± 0.7 fold-increase; in data set [2] (setting [9]) it was 3.0 ± 0.7 fold-increase; in data set [2] (setting [10]), 3.8 ± 0.2 fold-increase; in data set [4] (setting [8]) it was 2.8 ± 1.5 fold-increase; in data set [4] (setting [9]) it was 4.2 ± 1.7 fold-increase.
Regarding `N[C@H](CF)[C@H]1CC[C@H](C(=O)N2CC[C@@H](C3CCCCC3)[C@H]2C(=O)Nc2ccc3[nH]c(C(=O)O)nc3c2)CC1`, inhibition against Human FXIa was half-maximal at 0.034 µM (IC50).
On the same count and under the same terms, the result for `N[C@H](CF)[C@H]1CC[C@H](C(=O)N2CC[C@H](c3ccccc3)[C@H]2C(=O)Nc2ccc3[nH]c(C(=O)O)cc3c2)CC1` reads 0.02 µM.
On Human FXIa, `N[C@H](CF)[C@H]1CC[C@H](C(=O)N2CC[C@@H](c3ccccc3)[C@H]2C(=O)Nc2ccc3[nH]c(C(=O)O)cc3c2)CC1` had an IC50 of 0.015 µM.

As a reminder, the IC50 is the concentration at which inhibition is half-maximal. Lower therefore signals higher potency.
